Measured values published in patent US20210127673A1, “HERBICIDES” (SYNGENTA PARTICIPATIONS AG, priority 2016, published 2021).

Key:
Assay type in all cases: in vivo
Conditions in all cases: 1000 g/ha, evaluated after 13 days
[1] = test system: Triticum aestivium (TRZAW); experiment: Pre-emergence herbicidal activity, Triticum aestivium; parameters: key: 5=total damage to plant; 0=no damage to plant
How it was run: (§1)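 Damage rated on a 0 (none) to 5 (total) scale 13 days after treatment. Spray was an aqueous solution from an acetone/water (50:50) formulation with 0.5% Tween 20, applied pre-emergence one day post-sowing; plants kept in a glasshouse at 24/16 °C, 14 h light, 65% humidity.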

Avena fatua (AVEFA) [2] = experiment: Pre-emergence herbicidal activity, Avena fatua; parameters: key: 5=total damage to plant; 0=no damage to plant
How it was run: as §1

[3] = test system: Alopecurus myosuroides (ALOMY); experiment: Pre-emergence herbicidal activity, Alopecurus myosuroides; parameters: key: 5=total damage to plant; 0=no damage to plant
How it was run: as §1

[4] = test system: Echinochloa crus-galli (ECHCG); experiment: Pre-emergence herbicidal activity, Echinochloa crus-galli
How it was run: as §1

Lolium perenne (LOLPE) [5] = experiment: Pre-emergence herbicidal activity, Lolium perenne; parameters: key: 5=total damage to plant; 0=no damage to plant
How it was run: as §1

Setaria faberi (SETFA) [6] = experiment: Pre-emergence herbicidal activity, Setaria faberi
How it was run: as §1

[7] = test system: Triticum aestivium (TRZAW); experiment: Post-emergence herbicidal activity, Triticum aestivium; parameters: key: 5=total damage to plant; 0=no damage to plant
How it was run: (§2)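 Glasshouse post-emergence spray test: seedlings treated at 8 days after sowing with compound formulated in 50:50 acetone/water plus 0.5% Tween 20, then grown on at 24/16 °C, 14 h light, 65% humidity. Injury rated 13 days later, 0 = no damage, 5 = total damage.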

Avena fatua (AVEFA) [8] = experiment: Post-emergence herbicidal activity, Avena fatua; parameters: key: 5=total damage to plant; 0=no damage to plant
How it was run: as §2

[9] = test system: Alopecurus myosuroides (ALOMY); experiment: Post-emergence herbicidal activity, Alopecurus myosuroides; parameters: key: 5=total damage to plant; 0=no damage to plant
How it was run: as §2

[10] = test system: Echinochloa crus-galli (ECHCG); experiment: Post-emergence herbicidal activity, Echinochloa crus-galli; parameters: key: 5=total damage to plant; 0=no damage to plant
How it was run: as §2

Lolium perenne (LOLPE) [11] = experiment: Post-emergence herbicidal activity, Lolium perenne
How it was run: as §2

Setaria faberi (SETFA) [12] = experiment: Post-emergence herbicidal activity, Setaria faberi; parameters: key: 5=total damage to plant; 0=no damage to plant
How it was run: as §2

Row | Structure (SMILES) | Control of TRAZW after pre-emergence application (score 0-5) [1] | Control of AVEFA after pre-emergence application (score 0-5) (Avena fatua (AVEFA) [2]) | Control of ALOMY after pre-emergence application (score 0-5) [3] | Control of ECHCG after pre-emergence application (score 0-5) [4] | Control of LOLPE after pre-emergence application (score 0-5) (Lolium perenne (LOLPE) [5]) | Control of SETFA after pre-emergence application (score 0-5) (Setaria faberi (SETFA) [6]) | Control of TRAZW after post-emergence application (score 0-5) [7] | Control of AVEFA after post-emergence application (score 0-5) (Avena fatua (AVEFA) [8]) | Control of ALOMY after post-emergence application (score 0-5) [9] | Control of ECHCG after post-emergence application (score 0-5) [10] | Control of LOLPE after post-emergence application (score 0-5) (Lolium perenne (LOLPE) [11]) | Control of SETFA after post-emergence application (score 0-5) (Setaria faberi (SETFA) [12])
1 | O=C1NCCN1c1ccc(-c2cncc(F)c2)nc1C(F)(F)F [Compound B64] | 0 | 0 | 0 | 1 | 0 | 2 | 0 | 3 | 0 | 4 | 1 | 4
2 | CC(C)(C)NC(=O)Nc1ccc(-c2cncc(F)c2)nc1C(F)(F)F [Compound B65] | 0 | 2 | 1 | 2 | 1 | 3 | 0 | 3 | 1 | 5 | 3 | 4
3 | CN(C(=O)N1CCOCC1)c1ccc(-c2cncc(F)c2)nc1C(F)(F)F [Compound B67] | 0 | 0 | 0 | 3 | 1 | 4 | 1 | 2 | 1 | 4 | 1 | 4
4 | O=C(Nc1ccc(-c2cncc(F)c2)nc1C(F)(F)F)N1CCSC1 [Compound B68, N-[6-(5-fluoro-3-pyridyl)-2-(trifluoromethyl)-3-pyridyl]thiazolidine-3-carboxamide] | 0 | 2 | 1 | 3 | 1 | 4 | 2 | 3 | 0 | 5 | 2 | 5
5 | O=C(Nc1ccc(-c2cncc(F)c2)nc1C(F)(F)F)NN1CCOCC1 [Compound B69] | 0 | 1 | 0 | 2 | 1 | 4 | 1 | 3 | 0 | 4 | 2 | 4
6 | O=C(Nc1cncnc1)Nc1ccc(-c2cncc(F)c2)nc1C(F)(F)F [Compound B70] | 0 | 0 | 0 | 1 | 0 | 2 | 1 | 1 | 0 | 3 | 1 | 3
7 | O=C(Nc1ccccc1)Nc1ccc(-c2cncc(F)c2)nc1C(F)(F)F [Compound B71] | 0 | 0 | 0 | 1 | 0 | 1 | 1 | 2 | 0 | 3 | 2 | 3
8 | CN(C(N)=O)c1ccc(-c2cncc(F)c2)nc1C(F)(F)F [Compound B72] | 0 | 0 | 0 | 2 | 0 | 4 | 1 | 1 | 1 | 4 | 1 | 4
9 | CNC(=O)N(C)c1ccc(-c2cncc(F)c2)nc1C(F)(F)F [Compound B73] | 0 | 0 | 0 | 2 | 1 | 4 | 1 | 3 | 1 | 4 | 2 | 4
10 | COC(=O)c1nc(-c2cncc(F)c2)ccc1N(C(=O)OC(C)(C)C)C(=O)OC(C)(C)C [Compound B76, methyl 3-[bis(tert-butoxycarbonyl)amino]-6-(5-fluoro-3-pyridyl)pyridine-2-carboxylate] | 0 | 0 | 0 | 1 | 0 | 3 | 0 | 0 | 0 | 1 | 1 | 3
11 | COc1nc(-c2cncc(F)c2)ccc1NC(=O)OC(C)(C)C [Compound B78] | 0 | 0 | 0 | 2 | 1 | 4 | 0 | 2 | 0 | 2 | 1 | 5
12 | Cc1cc(CNC(=O)Nc2ccc(-c3cncc(F)c3)nc2C(F)(F)F)c(C(F)(F)F)o1 [Compound B79] | 0 | 0 | 0 | 2 | 1 | 1 | 0 | 2 | 0 | 1 | 1 | 2
